Reference: ChEMBL document CHEMBL1130302, “1-Arylsulfonyl-3-(-hydroxybenzyl)-1H-pyrroles, a novel class of anti-HIV-1 reverse transcriptase inhibitors” (Bioorg Med Chem Lett, 1997)

Assays:
MT4 = assay: Concentration required to reduce the viability of mock-infected MT-4 cells by 50%; type: functional; conditions: Homo sapiens
[1] = molecular target: Human immunodeficiency virus type 1 reverse transcriptase (Human immunodeficiency virus 1, UniProt Q72547); assay: Inhibition of HIV-1 recombinant reverse transcriptase
[2] = Selectivity index reported as ratio of CC50 to EC50; type: functional
[3] = test system: Human immunodeficiency virus 1; assay: Concentration required to achieve 50% protection of MT-4 cells against the cytopathic effect of HIV-1; type: functional, organism-based; conditions: Human immunodeficiency virus 1, MT4

With Nc1ccc(Cl)cc1S(=O)(=O)n1ccc(C(O)c2ccccc2)c1 (stereo not given) the CC50 (MT4) was 109 µM, the IC50 [1] was greater than 30 µM and the Ratio [2] was 34. For the same compound, the EC50 [3] was 3.2 µM.

Cc1ccc(C(O)c2ccn(S(=O)(=O)c3ccccc3)c2)cc1 (stereo not given) gave a CC50 (MT4) of 122 µM, a Ratio [2] of 8 and an EC50 [3] of 15 µM.

Work on CCOC(=O)c1cc(C(O)c2ccc(Cl)cc2Cl)cn1S(=O)(=O)c1ccc(C)cc1 (stereo not given) yielded a CC50 (MT4) of 36 µM, a Ratio [2] of 2.6 and an EC50 [3] of 14 µM.

Work on O=C(c1ccn(S(=O)(=O)c2ccccc2)c1)c1ccc(Cl)cc1Cl yielded a CC50 (MT4) of 30 µM and an EC50 [3] greater than 30 µM.

With Cc1ccc(S(=O)(=O)n2ccc(C(O)c3ccc(Cl)cc3Cl)c2)cc1 (stereo not given) the CC50 (MT4) was 61 µM, the IC50 [1] was 18 µM and the Ratio [2] was 203. For the same compound, the EC50 [3] was 0.3 µM.

Compound Cc1ccc(C(=O)c2ccn(S(=O)(=O)c3ccccc3)c2)cc1 has a CC50 (MT4) of 30 µM and an EC50 [3] greater than 30 µM.

For O=S(=O)(c1ccccc1)n1ccc(C(O)c2ccc(Cl)cc2)c1 (stereo not given), the CC50 (MT4) was 66 µM, the Ratio [2] was 7 and the EC50 [3] was 9 µM.

O=C(c1ccc(Cl)cc1)c1ccn(S(=O)(=O)c2ccccc2)c1 gave a CC50 (MT4) of 26 µM and an EC50 [3] greater than 26 µM.

For Nc1ccc(S(=O)(=O)n2ccc(C(O)c3ccc(Cl)cc3Cl)c2)cc1 (stereo not given), the CC50 (MT4) was 74 µM, the Ratio [2] was 6.7 and the EC50 [3] was 11 µM.

Compound Cc1ccnc2c1NC(=O)c1cccnc1N2C1CC1 [NEVIRAPINE] has a CC50 (MT4) greater than 200 µM.

Compound Cc1ccc(S(=O)(=O)n2cc(C(O)c3ccc(Cl)cc3Cl)cc2C(=O)OC(C)C)cc1 (stereo not given) has a CC50 (MT4) of 32 µM, a Ratio [2] of 1.4 and an EC50 [3] of 22 µM.

Cc1ccc(S(=O)(=O)n2ccc(C(O)c3ccc(Cl)cc3Cl)c2)c(C)c1 (stereo not given) showed a CC50 (MT4) of 60 µM, an IC50 [1] of less than 1.1 µM and a Ratio [2] of 200. It also gave an EC50 [3] of 0.3 µM.

Cc1ccc(C(c2ccn(S(=O)(=O)c3ccccc3)c2)n2ccnc2)cc1 (stereo not given) showed a CC50 (MT4) of 26 µM and an EC50 [3] greater than 26 µM.

In the case of CC(O)c1ccn(S(=O)(=O)c2cc(Cl)ccc2N)c1 (stereo not given), the CC50 (MT4) is reported as 95 µM and the EC50 [3] is reported as greater than 95 µM.

In the case of Cc1cn([C@H]2C[C@H](N=[N+]=[N-])[C@@H](CO)O2)c(=O)[nH]c1=O [ZIDOVUDINE], the CC50 (MT4) is reported as greater than 20 µM and the EC50 [3] is reported as 0.01 µM.

Work on CCOP(=O)(OCC)OP(=O)(OCC)OCC [ETHYL PYROPHOSPHATE] yielded a CC50 (MT4) of 740 µM, a Ratio [2] of 106 and an EC50 [3] of 7 µM.

Compound CCOC(=O)c1cc(C(O)c2ccc(Cl)cc2Cl)cn1S(=O)(=O)c1cc(Cl)ccc1N (stereo not given) has a CC50 (MT4) of 29 µM, a Ratio [2] of 1.8 and an EC50 [3] of 16 µM.

With O=C(c1ccccc1)c1ccn(S(=O)(=O)c2ccccc2)c1 the CC50 (MT4) was 32 µM and the EC50 [3] was greater than 32 µM.

CC(C)OC(=O)c1cc(C(O)c2ccc(Cl)cc2Cl)cn1S(=O)(=O)c1ccc(Cl)cc1 (stereo not given) showed a CC50 (MT4) of 28 µM and an EC50 [3] greater than 28 µM.

O=S(=O)(c1ccccc1)n1ccc(C(c2ccc(Cl)cc2Cl)n2ccnc2)c1 (stereo not given) showed a CC50 (MT4) of 14 µM and an EC50 [3] greater than 14 µM.

Compound O=S(=O)(c1ccccc1)n1ccc(C(O)c2c(F)cccc2F)c1 (stereo not given) has a CC50 (MT4) of 100 µM, a Ratio [2] of 2 and an EC50 [3] of 48 µM.

Work on O=[N+]([O-])c1ccc(S(=O)(=O)n2ccc(C(O)c3ccc(Cl)cc3Cl)c2)cc1 (stereo not given) yielded a CC50 (MT4) of 50 µM, a Ratio [2] of 2.2 and an EC50 [3] of 22 µM.

CCc1ccc(S(=O)(=O)n2ccc(C(O)c3ccc(Cl)cc3Cl)c2)cc1 (stereo not given) showed a CC50 (MT4) of 71 µM, an IC50 [1] of 22 µM and a Ratio [2] of 47. It also gave an EC50 [3] of 1.5 µM.

For O=S(=O)(c1ccccc1)n1ccc(C(O)c2ccccc2F)c1 (stereo not given), the CC50 (MT4) was greater than 200 µM, the Ratio [2] was greater than 22 and the EC50 [3] was 9.1 µM.

CCOC(=O)c1cc(C(O)c2ccc(Cl)cc2Cl)cn1S(=O)(=O)c1cc(Cl)ccc1[N+](=O)[O-] (stereo not given) gave a CC50 (MT4) of 14 µM and an EC50 [3] greater than 14 µM.

With O=S(=O)(c1ccccc1)n1ccc(C(O)c2ccc(Cl)cc2Cl)c1 (stereo not given) the CC50 (MT4) was 57 µM, the IC50 [1] was greater than 30 µM and the Ratio [2] was 11. For the same compound, the EC50 [3] was 5 µM.

With Cc1ccccc1S(=O)(=O)n1ccc(C(O)c2ccc(Cl)cc2Cl)c1 (stereo not given) the CC50 (MT4) was greater than 200 µM, the IC50 [1] was 27 µM and the Ratio [2] was greater than 117. The EC50 [3] was 1.7 µM.

Work on CC(=O)OC(c1ccn(S(=O)(=O)c2ccc(C)cc2)c1)c1ccc(Cl)cc1Cl (stereo not given) yielded a CC50 (MT4) of 100 µM, a Ratio [2] of 10 and an EC50 [3] of 9.8 µM.

O=S(=O)(c1ccccc1)n1ccc(C(O)c2ccccc2)c1 (stereo not given) gave a CC50 (MT4) of 124 µM, a Ratio [2] of 15 and an EC50 [3] of 8 µM.

Work on CC(C)(C)c1ccc(S(=O)(=O)n2ccc(C(O)c3ccc(Cl)cc3Cl)c2)cc1 (stereo not given) yielded a CC50 (MT4) of 62 µM, an IC50 [1] of 6.4 µM and an SI [2] of 24. For the same compound, the EC50 [3] was 2.5 µM.

Work on COc1ccc(C(O)c2ccn(S(=O)(=O)c3ccc(C)cc3)c2)cc1 (stereo not given) yielded a CC50 (MT4) greater than 200 µM, a Ratio [2] greater than 12 and an EC50 [3] of 15.7 µM.

With O=S(=O)(c1ccccc1)n1ccc(C(O)c2ccccc2Cl)c1 (stereo not given) the CC50 (MT4) was 113 µM, the IC50 [1] was 29.5 µM and the Ratio [2] was 27.5. For the same compound, the EC50 [3] was 4.1 µM.

O=S(=O)(c1ccc(Cl)cc1)n1ccc(C(O)c2ccc(Cl)cc2Cl)c1 (stereo not given) gave a CC50 (MT4) of 96 µM, an IC50 [1] of 17 µM and a Ratio [2] of 21.8. It also gave an EC50 [3] of 4.4 µM.

With COC(c1ccn(S(=O)(=O)c2ccc(C)cc2)c1)c1ccc(Cl)cc1Cl (stereo not given) the CC50 (MT4) was 82 µM and the EC50 [3] was greater than 82 µM.

O=S(=O)(c1ccccc1)n1ccc(C(c2ccccc2)n2ccnc2)c1 (stereo not given) showed a CC50 (MT4) of 25 µM and an EC50 [3] greater than 25 µM.

Cc1ccc(C(O)c2ccn(S(=O)(=O)c3ccc(C)cc3)c2)cc1 (stereo not given) gave a CC50 (MT4) of 96 µM, an IC50 [1] of 4.7 µM and a Ratio [2] of 13. The EC50 [3] was 7.3 µM.

With O=S(=O)(c1ccccc1)n1ccc(C(c2ccc(Cl)cc2)n2ccnc2)c1 (stereo not given) the CC50 (MT4) was 22 µM and the EC50 [3] was greater than 22 µM.

Compound CC(C)c1ccc(S(=O)(=O)n2ccc(C(O)c3ccc(Cl)cc3Cl)c2)cc1 (stereo not given) has a CC50 (MT4) of 51 µM, an IC50 [1] of 2.5 µM and a Ratio [2] of 28. It also gave an EC50 [3] of 1.8 µM.
